Results reported in US20240360177A1, “PEPTIDES WITH ANTIMICROBIAL ACTIVITIES” (priority 2021, published 2024).
In brackets after ≈: the same amount, converted by molar mass. Read-outs that look alike come from different tables or passages of the source. Starred links: 1 amine or outer side, 2 acyl side, 3 side chain; linkers in the order of their positions; H or OH if unused. Non-standard residues stand in square brackets, D forms with d. Residues, ends and D or L forms follow the SMILES beside them. NH(CH2)9CO = O=C(CCCCCCCCCN[*:1])[*:2]; Aoc = NCCCCCCCC(=O)O; Ava = NCCCCC(=O)O

Legend:
[1] = tested on: Escherichia coli ATCC 25922; format: cell-based
C. glabrata = details: 24 h
in vitro [2] = details: human, EC50 cytotoxicity in HepG2, intracellular ATP assay
C. albicans = details: 24 h
C. krusei = details: 24 h
C. parapsilosis = details: 24 h
C. gattii = details: 72 h
C. tropicalis = details: 24 h
[3] = tested on: Staphylococcus aureus ATCC 29213; format: cell-based
Scedosporium spp. = details: 72 h
C. neoformans = details: 72 h
[4] = tested on: Pseudomonas aeruginosa ATCC 27853; format: cell-based
Fusarium spp. = details: 48 h
C. dubliniensis = details: 24 h
C. auris = details: 24 h
[5] = tested on: Mycobacterium fortuitum ATCC 110; experiment: Antibacterial broth microdilution MIC, Mycobacterium fortuitum; format: cell-based; details: 48 hrs
[6] = tested on: Trichophyton rubrum ATCC MYA-4438
[7] = tested on: Shigella sonnei MMX 10772; experiment: Antibacterial broth microdilution MIC, Shigella sonnei; format: cell-based; details: CAMHB
[8] = tested on: Mycobacterium smegmatis ATCC 700084; format: cell-based; details: ATCC 700084, 48 h
[9] = tested on: Microsporum gypseum ATCC 14683
[10] = tested on: Klebsiella pneumoniae ATCC 13883; format: cell-based
[11] = tested on: Salmonella senftenberg CDC 127; format: cell-based
[12] = tested on: Epidermophyton floccosum ATCC 52066
[13] = Acute toxicity in CD-1 mice; details: both sexes, mouse, in vivo
Protocol: Acute toxicity and subacute toxicity of ACPs were tested in CD-1 mice. In the acute toxicity study, groups of CD-1 male or female mice were administered single intravenous or intraperitoneal escalating doses (n=2-3 per dose) of the peptides dissolved in normal saline for injection or in phosphate buffered saline. The intravenous dose was administered via tail vein with a slow push over 15-20 seconds. Doses were escalated based on tolerability.

in vitro [14] = details: human, human serum, full strength
[15] = mice
Coccidioides species = details: N = 10 strains; 48-72 hrs; >50% inhibition
[16] = Subacute toxicity in CD-1 mice; format: in vivo; details: daily IP for 7 days
Protocol: In the subacute toxicity study, groups of CD-1 male or female mice were administered seven consecutive daily intraperitoneal doses (n=3 per dose) of the peptides (SEQ ID NO: 7, SEQ ID NO: 29, SEQ ID NO: 53) dissolved in normal saline for injection. Each peptide was evaluated at 2 to 3 dose levels ranging from 2.5 to 7.5 mg/kg/day. Mice were weighed at least once daily and observed at least twice daily for any abnormal findings and determination of overall health. At 24 hrs after the last dose, mice were humanely euthanized, with blood collected through cardiac puncture into K2EDTA microtainers to assess hematological parameters. All three peptides were tolerated at the highest dose evaluated (7.5 mg/kg/day) for 7 days.

Row | Compound | MIC Escherichia coli [1] | MIC C. glabrata (C. glabrata) | EC50 (in vitro [2]) | MIC C. albicans (C. albicans) | MIC C. krusei (C. krusei) | MIC C. parapsilosis (C. parapsilosis) | Activity at 24 h MIC50 against Candida spp. (Candida spp.) | Activity at 24 h MIC90 against Candida spp. (Candida spp.) | Activity at 48 h MIC50 against Candida spp. (Candida spp.) | Activity at 48 h MIC90 against Candida spp. (Candida spp.) | MIC C. gattii (C. gattii) | MIC Range Filamentous Fungi (Filamentous Fungi) | MIC C. tropicalis (C. tropicalis) | MIC Range Cryptococcus spp. (Cryptococcus spp.) | MIC Range Scedosporium spp. (Scedosporium spp.) | MIC C. neoformans (C. neoformans) | MIC Range Lomentospora prolificans (Lomentospora prolificans) | MIC Range Fusarium spp. (Fusarium spp.) | MIC C. dubliniensis (C. dubliniensis) | MIC C. auris (C. auris) | further results
1 | N=C(N)NCCC[C@@H](N)C(=O)N[C@@H](CCCNC(=N)N)C(=O)N[C@H](CCCNC(=N)N)C(=O)NCCCCC(=O)N[C@H](CCCNC(=N)N)C(=O)N[C@@H](CCCNC(=N)N)C(=O)N[C@H](CCCNC(=N)N)C(=O)NCCCCC(=O)N[C@H](CCCNC(=N)N)C(=O)N[C@@H](CCCNC(=N)N)C(=O)N[C@H](CCCNC(=N)N)C(=O)N[C@@H](CCCNC(=N)N)C(=O)NCCCCC(=O)N[C@H](CCCNC(=N)N)C(=O)N[C@@H](CCCNC(=N)N)C(=O)N[C@H](CCCNC(=N)N)C(=O)N[C@@H](CCCNC(=N)N)C(N)=O [SEQ ID NO: 18, rRr-(Ava)-rRr-(Ava)-rRrR-(Ava)-rRrR-NH2] (H-[dR]R[dR][Ava][dR]R[dR][Ava][dR]R[dR]R[Ava][dR]R[dR]R-NH2) | 32 µg/mL (≈ 12.8 µM) | 0.5 µg/mL (≈ 0.2 µM) | > 300 µg/mL | 1 µg/mL (≈ 0.4 µM) | 0.5 µg/mL (≈ 0.2 µM) | 0.25 µg/mL (≈ 0.1 µM) | 0.5 µg/mL | 1 µg/mL | 0.5 µg/mL | 2 µg/mL | 0.25 µg/mL (≈ 0.1 µM) | 0.25 to 0.5 µg/mL | 0.5 µg/mL (≈ 0.2 µM) | 0.25 to 0.5 µg/mL | 0.25 to 0.5 µg/mL | 0.25 µg/mL (≈ 0.1 µM) | 0.5 µg/mL (≈ 0.2 µM) | 0.25 to 0.5 µg/mL | 0.5 µg/mL (≈ 0.2 µM) | 0.25 µg/mL (≈ 0.1 µM) | MIC Staphylococcus aureus [3]: 16 µg/mL (≈ 6.4 µM); MIC Pseudomonas aeruginosa [4]: 64 µg/mL (≈ 25.6 µM)
2 | N=C(N)NCCC[C@@H](N)C(=O)N[C@@H](CCCNC(=N)N)C(=O)N[C@H](CCCNC(=N)N)C(=O)NCCCCCCCCCC(=O)N[C@H](CCCNC(=N)N)C(=O)N[C@@H](CCCNC(=N)N)C(=O)N[C@H](CCCNC(=N)N)C(=O)NCCCCCCCC(=O)N[C@H](CCCNC(=N)N)C(=O)N[C@@H](CCCNC(=N)N)C(=O)N[C@H](CCCNC(=N)N)C(=O)N[C@@H](CCCNC(=N)N)C(=O)NCCCCCCCC(=O)N[C@H](CCCNC(=N)N)C(=O)N[C@@H](CCCNC(=N)N)C(=O)N[C@H](CCCNC(=N)N)C(=O)N[C@@H](CCCNC(=N)N)C(=O)NCCCCCCCC(=O)O [SEQ ID NO: 34, rRr-(Ada)-rRr-(Aoa)-rRrR-(Aoa)-rRrR-Aoa] (H-[dR]R[dR][NH(CH2)9CO][dR]R[dR][Aoc][dR]R[dR]R[Aoc][dR]R[dR]R[Aoc]-OH) | 4 µg/mL (≈ 1.43 µM) | 8 µg/mL (≈ 2.86 µM) | 162 µg/mL (≈ 57.9 µM) | 2 µg/mL (≈ 0.715 µM) | 1 µg/mL (≈ 0.357 µM) | 0.5 µg/mL (≈ 0.179 µM) | – | – | – | – | 0.5 µg/mL (≈ 0.179 µM) | – | 0.5 µg/mL (≈ 0.179 µM) | – | – | 0.5 µg/mL (≈ 0.179 µM) | – | 0.25 to 2 µg/mL | 0.5 µg/mL (≈ 0.179 µM) | 0.5 µg/mL (≈ 0.179 µM) | MIC Mycobacterium fortuitum [5]: 2 µg/mL (≈ 0.715 µM); MIC Trichophyton rubrum [6]: 4 µg/mL (≈ 1.43 µM); MIC Staphylococcus aureus [3]: 16 µg/mL (≈ 5.72 µM); MIC Pseudomonas aeruginosa [4]: 16 µg/mL (≈ 5.72 µM); MIC Shigella sonnei [7]: 4 µg/mL (≈ 1.43 µM); MIC Mycobacterium smegmatis [8]: 1 µg/mL (≈ 0.357 µM); MIC Microsporum gypseum [9]: 32 µg/mL (≈ 11.4 µM); MIC Klebsiella pneumoniae [10]: 8 µg/mL (≈ 2.86 µM); MIC Salmonella senftenberg [11]: 8 µg/mL (≈ 2.86 µM); MIC Epidermophyton floccosum [12]: 8 µg/mL (≈ 2.86 µM)
3 | N=C(N)NCCC[C@@H](N)C(=O)N[C@@H](CCCNC(=N)N)C(=O)N[C@H](CCCNC(=N)N)C(=O)N1CCC[C@H]1C(=O)N[C@H](CCCNC(=N)N)C(=O)N[C@@H](CCCNC(=N)N)C(=O)N[C@H](CCCNC(=N)N)C(=O)N1CCC[C@H]1C(=O)N[C@H](CCCNC(=N)N)C(=O)N[C@@H](CCCNC(=N)N)C(=O)N[C@H](CCCNC(=N)N)C(=O)N[C@@H](CCCNC(=N)N)C(=O)N1CCC[C@H]1C(=O)N[C@H](CCCNC(=N)N)C(=O)N[C@@H](CCCNC(=N)N)C(=O)N[C@H](CCCNC(=N)N)C(=O)N[C@@H](CCCNC(=N)N)C(N)=O [SEQ ID NO: 53, rRr-P-rRr-P-rRrR-P-rRrR-NH2] (H-[dR]R[dR]P[dR]R[dR]P[dR]R[dR]RP[dR]R[dR]R-NH2) | – | 0.5 µg/mL (≈ 0.2 µM) | > 300 µg/mL | 0.5 µg/mL (≈ 0.2 µM) | 0.5 µg/mL (≈ 0.2 µM) | 0.25 µg/mL (≈ 0.1 µM) | 0.5 µg/mL | 0.5 µg/mL | 0.5 µg/mL | 2 µg/mL | 0.25 µg/mL (≈ 0.1 µM) | 0.12 to 0.25 µg/mL | 0.5 µg/mL (≈ 0.2 µM) | 0.25 to 0.5 µg/mL | 0.25 µg/mL (≈ 0.1 µM) | 0.5 µg/mL (≈ 0.2 µM) | 0.12 µg/mL (≈ 0.0481 µM) | 0.25 µg/mL (≈ 0.1 µM) | 0.25 µg/mL (≈ 0.1 µM) | 0.25 µg/mL (≈ 0.1 µM) | MTD ([13]; single IP dose, read-out: Tolerated single intraperitoneal dose): 10 to 15 mg/kg; MTD ([13]; single IV dose via tail vein, read-out: Tolerated single intravenous dose): 5 to 7.5 mg/kg; remaining at 2 h, 5 μM (in vitro [14]): ~100%; Kidney to Plasma Concentration Ratio Day 7 ([15]; 6 hrs post dose of 7.5 mg/kg IP once daily, Day 7, mean ± SD, n = 3): 916 ± 36; Kidney to Plasma Concentration Ratio Day 1 ([15]; 6 hrs post dose of 7.5 mg/kg IP, Day 1, mean ± SD, n = 3): 179 ± 106; Day 1 AUC ratio, kidney to plasma ([15]; IP 7.5 mg/kg, Day 1): 58.3; MIC Range Coccidioides species (Coccidioides species): 0.06 to 0.25 µg/mL; Tolerated dose (highest dose evaluated) [16]: 7.5 mg/kg/day; Clinical or hematological adverse effects ([16]; up to 7.5 mg/kg/day): No significant clinical or hematological adverse effects were observed
4 | N=C(N)NCCC[C@@H](N)C(=O)N[C@@H](CCCNC(=N)N)C(=O)N[C@H](CCCNC(=N)N)C(=O)N1CCC[C@H]1C(=O)N[C@H](CCCNC(=N)N)C(=O)N[C@@H](CCCNC(=N)N)C(=O)N[C@H](CCCNC(=N)N)C(=O)N1CCC[C@H]1C(=O)N[C@H](CCCNC(=N)N)C(=O)N[C@@H](CCCNC(=N)N)C(=O)N[C@H](CCCNC(=N)N)C(=O)N1CCC[C@H]1C(=O)N[C@H](CCCNC(=N)N)C(=O)N[C@@H](CCCNC(=N)N)C(=O)N[C@H](CCCNC(=N)N)C(N)=O [SEQ ID NO: 66, rRr-P-rRr-P-rRr-P-rRr-NH2] (H-[dR]R[dR]P[dR]R[dR]P[dR]R[dR]P[dR]R[dR]-NH2) | – | 0.5 µg/mL (≈ 0.229 µM) | > 300 µg/mL | 0.25 µg/mL (≈ 0.115 µM) | 0.5 µg/mL (≈ 0.229 µM) | 0.25 µg/mL (≈ 0.115 µM) | 0.5 µg/mL | 8 µg/mL | 0.5 µg/mL | 16 µg/mL | 1 µg/mL (≈ 0.458 µM) | 0.12 to 8 µg/mL | 0.25 µg/mL (≈ 0.115 µM) | 0.5 to 1 µg/mL | 0.5 to 2 µg/mL | 0.5 µg/mL (≈ 0.229 µM) | 2 µg/mL (≈ 0.916 µM) | 0.12 to 8 µg/mL | 0.25 µg/mL (≈ 0.115 µM) | 8 µg/mL (≈ 3.67 µM) | –
